According to the NIST ThermoML archive (doi:10.1021/je500389t):
± gives the expanded uncertainty stated by the source.

Legend:
[1] = 101 kPa, Liquid; for viscosity: Capillary tube (Ostwald / Ubbelohde) method; for mass density: Pycnometric method
[2] = xn = mol fraction of the nth substance listed; conditions: 101 kPa, Liquid, Capillary tube (Ostwald / Ubbelohde) method, x2 = 0

| Compound | viscosity ([1]; 293.15 K) | mass density ([1]; 293.15 K) | viscosity ([1]; 298.15 K) | mass density ([1]; 298.15 K) | viscosity ([1]; 303.15 K) | mass density ([1]; 303.15 K) | viscosity ([1]; 308.15 K) | mass density ([1]; 308.15 K) | viscosity ([1]; 313.15 K) | mass density ([1]; 313.15 K) | viscosity ([2]; 293.15 K) | viscosity ([2]; 298.15 K) | viscosity ([2]; 303.15 K) | viscosity ([2]; 308.15 K) | viscosity ([2]; 313.15 K) |
| --- | --- | --- | --- | --- | --- | --- | --- | --- | --- | --- | --- | --- | --- | --- | --- |
| COCCOCCOC [2,5,8-trioxanonane] | 1.09 ± 0.04 mPa·s | 945.2 ± 2 kg/m3 | 0.998 ± 0.041 mPa·s | 939.8 ± 2 kg/m3 | 0.914 ± 0.04 mPa·s | 935 ± 2 kg/m3 | 0.834 ± 0.04 mPa·s | 930.7 ± 2 kg/m3 | 0.785 ± 0.04 mPa·s | 925.4 ± 2 kg/m3 | – | – | – | – | – |
| O [water] + COCCOCCOC | – | – | – | – | – | – | – | – | – | – | 1.01 ± 0.04 mPa·s | 0.89 ± 0.04 mPa·s | 0.801 ± 0.04 mPa·s | 0.723 ± 0.04 mPa·s | 0.656 ± 0.04 mPa·s |
| O [water] | 1.01 ± 0.04 mPa·s | – | 0.89 ± 0.04 mPa·s | – | 0.801 ± 0.04 mPa·s | – | 0.723 ± 0.04 mPa·s | – | 0.656 ± 0.04 mPa·s | – | – | – | – | – | – |
